From US9169290B2, “Peptides and their use” (priority 2007, dated 2015)
Values after ≈ are worked out from the molar mass of the structure shown. Like-named read-outs stand apart in the source and are kept apart here. Ends that are not written are not given here. Peptide text beside a SMILES is read from it.

Columns and labels:
C. albicans = format: cell-based, Candida albicans
Procedure: (§1) Broth Dilution Antifungal Susceptibility Testing
(§2) The sensitivity of relevant fungal strains to the peptides was determined using Clinical Laboratory Standard Institute (CLSI; formerly NCCLS) Approved Standards.

Trichophyton rubrum = format: cell-based
Procedure: as §1, §2

C. krusei = format: cell-based, Candida krusei
Procedure: as §1, §2

Row | Molecule | MIC, Candida albicans NCTC3179 (C. albicans) [µM] | MIC (C. albicans) [µM] | further results
1 | RRVVR [NP302, RRVVR] | >2000 | – | MIC (Trichophyton rubrum): >2 µM
2 | KKKKKEGKKQEKMLD [NP333] | >2000 | – | –
3 | RRVVRR [NP305, RRVVRR] | >2000 | – | MIC (Trichophyton rubrum): >2 µM
4 | N=C(N)NCCC[C@H](NC(=O)[C@H](CCCNC(=N)N)NC(=O)[C@@H](N)CCCNC(=N)N)C(=O)O [NP356, RRR] (H-Arg-Arg-Arg-OH; N-terminus and C-terminus assumed) | – | >2048 | –
5 | PKTKAKAKAKKGKGKD [NP336] | >2000 | – | –
6 | KKKKK [NP343, KKKKK] | – | >2048 | –
7 | KKKKKKK [NP344, KKKKKKK] | – | >2048 | –
8 | RVRVR [NP301, RVRVR] | >2000 | – | MIC (Trichophyton rubrum): >2 µM
9 | RRWRR [NP322, RRWRR] | >2000 | – | –
10 | RRRWWRRR [NP327] | 512 | – | MIC, Candida albicans ATCC24433 (C. albicans): 1024 µM; MIC, Candida albicans ATCC90028 (C. albicans): 512 µM; MIC, Candida krusei NCPF3953 (C. krusei): 64 µM
11 | RRVRVRR [NP307, RRVRVRR] | >2000 | – | MIC (Trichophyton rubrum): >2 µM
12 | RRWRWR [NP323, RRWRWR] | 1024 | – | MIC, Candida albicans ATCC24433 (C. albicans): 1024 µM; MIC, Candida albicans ATCC90028 (C. albicans): 2000 µM; MIC (C. krusei): 256 µM; MIC, Candida krusei NCPF3953 (C. krusei): 256 µM
13 | GKKEKPEKKVKK [NP331] | >2000 | – | –
14 | RRRRWWRRRR [NP329] | 256 | 1024 | MIC, Candida albicans ATCC24433 (C. albicans): 512 µM; MIC (C. krusei): 32 µM; MIC, Candida krusei NCPF3953 (C. krusei): 32 µM
15 | RWRWR [NP320, RWRWR] | >2000 | – | –
16 | RRWWRR [NP324, RRWWRR] | 1024 | 1024 | MIC, Candida albicans ATCC24433 (C. albicans): 1024 µM; MIC, Candida albicans ATCC90028 (C. albicans): 1024 µM; MIC (C. krusei): 256 µM; MIC, Candida krusei NCPF3953 (C. krusei): 256 µM
17 | KKKKKKKKKKK [NP346] | – | >2048 | –
18 | KLTKPKPQAESKKKKK [NP332] | >2000 | – | –
19 | KKKKKKKKKKKKK [NP347] | – | – | MIC (C. albicans; C. albicans strain NCTC3179): >2048 µM
20 | RRVRRVRR [NP309] | >2000 | – | MIC (Trichophyton rubrum): >2 µM

Row | Molecule | MIC, Candida albicans NCTC3179 (C. albicans) [µM] | MIC (C. albicans) [µM] | further results
21 | RRRVVRRR [NP308] | >2000 | – | MIC (Trichophyton rubrum): >2 µM
22 | KKKDKVKK [NP334] | >2000 | – | –
23 | RRRWRRR [NP325, RRRWRRR] | >2000 | – | –
24 | RRVRR [NP303, RRVRR] | >2000 | – | MIC (Trichophyton rubrum): >2 µM
25 | KVRQGTLKKAR [NP335] | >2000 | – | –
26 | RRWWR [NP321, RRWWR] | >2000 | – | –
27 | RRWRRWRR-OH [NP311] | >2000 | – | –
28 | RRVRVR [NP304, RRVRVR] | >2000 | – | MIC (Trichophyton rubrum): >2 µM
29 | N=C(N)NCCC[C@H](NC(=O)[C@H](CCCNC(=N)N)NC(=O)[C@H](CCCNC(=N)N)NC(=O)[C@H](CCCNC(=N)N)NC(=O)[C@H](CCCNC(=N)N)NC(=O)[C@H](CCCNC(=N)N)NC(=O)[C@@H](N)CCCNC(=N)N)C(=O)O [NP358, RRRRRRR] | – | >2048 | –
30 | CC(C)[C@H](NC(=O)[C@H](CCCNC(=N)N)NC(=O)[C@H](CCCNC(=N)N)NC(=O)[C@H](CCCNC(=N)N)NC(=O)[C@@H](N)CCCNC(=N)N)C(=O)N[C@H](C(=O)N[C@@H](CCCNC(=N)N)C(=O)N[C@@H](CCCNC(=N)N)C(=O)N[C@@H](CCCNC(=N)N)C(=O)N[C@@H](CCCNC(=N)N)C(=O)O)C(C)C [NP310] | >2000 | – | MIC (Trichophyton rubrum): >2 µM
31 | N=C(N)NCCC[C@H](NC(=O)[C@H](CCCNC(=N)N)NC(=O)[C@H](CCCNC(=N)N)NC(=O)[C@H](CCCNC(=N)N)NC(=O)[C@H](CCCNC(=N)N)NC(=O)[C@H](CCCNC(=N)N)NC(=O)[C@H](CCCNC(=N)N)NC(=O)[C@H](CCCNC(=N)N)NC(=O)[C@H](CCCNC(=N)N)NC(=O)[C@H](CCCNC(=N)N)NC(=O)[C@@H](N)CCCNC(=N)N)C(=O)O [NP350] | – | 64 (≈ 111 µg/mL) | MIC (C. krusei): 8 µM (≈ 13.9 µg/mL)
32 | KKKKKKKKKKKKKKK [NP348] | – | – | MIC (C. albicans; C. albicans strain NCTC3179): >2048 µM
33 | KKKKKKKKK [NP345] | – | >2048 | –
34 | ILRWPWWPWRRK-NH2 [NP354] | – | – | MIC (C. krusei; C. krusei strain NCPF3953): >2048 µM
35 | RRWRRWRR [NP328] | 1024 | – | MIC, Candida albicans ATCC24433 (C. albicans): 1024 µM; MIC, Candida albicans ATCC90028 (C. albicans): 1024 µM; MIC (C. krusei): 128 µM; MIC, Candida krusei NCPF3953 (C. krusei): 128 µM
36 | N=C(N)NCCC[C@H](NC(=O)[C@H](CCCNC(=N)N)NC(=O)[C@H](CCCNC(=N)N)NC(=O)[C@H](CCCNC(=N)N)NC(=O)[C@H](CCCNC(=N)N)NC(=O)[C@H](CCCNC(=N)N)NC(=O)[C@H](CCCNC(=N)N)NC(=O)[C@H](CCCNC(=N)N)NC(=O)[C@H](CCCNC(=N)N)NC(=O)[C@H](CCCNC(=N)N)NC(=O)[C@H](CCCNC(=N)N)NC(=O)[C@H](CCCNC(=N)N)NC(=O)[C@@H](N)CCCNC(=N)N)C(=O)O [NP351] | – | 4 (≈ 8.19 µg/mL) | MIC (C. krusei; C. krusei strain NCPF3953): 32 µM (≈ 65.6 µg/mL)
37 | RRRVRRR [NP306, RRRVRRR] | >2000 | – | MIC (Trichophyton rubrum): >2 µM
38 | RRWRWRR [NP326, RRWRWRR] | 2000 | 1024 | MIC, Candida albicans ATCC24433 (C. albicans): 1024 µM; MIC, Candida albicans ATCC90028 (C. albicans): 1024 µM; MIC (C. krusei): 128 µM; MIC, Candida krusei NCPF3953 (C. krusei): 128 µM
39 | RRRRR [NP357, RRRRR] | – | >2048 | –
